Assay [1] concerns Hep3B cells. Description: Hep3B cell proliferation (CellTiter-Glo, 72 hours). The assay is classed as cell-based. The conditions noted are these: read-out: Hep3B IC50. Here is the method:
1. Test method: inoculating Hep3B cells (ATCC) in logarithmic growth phase at an appropriate density in a 96-well culture plate, with 100 μL per well. After overnight culture, different concentrations of compounds were added to stay for 72 hours, and menstruum control group (negative control) was set, and the incubation was performed under the condition of 5% CO2 at 37° C. Adding 10 mM compound stock solution to the cells, after the cells were incubated with the compounds for 72 hours, the effects of the compounds on cell proliferation were determined by CellTiter-Glo (Promega) method. 30 μL CTG reagent was added to each well and the resulting mixtures were placed in a 37° C. incubator for 2-4 hours. Then the plate was read by a full-wavelength microplate enzyme reader Envision at a […].
The inhibition rates (%) of the compounds on tumor cell growth were calculated by the following formula: inhibition rate (%)=(OD negative control well−OD administration well)/OD negative control well×100%. IC50 values were obtained by four parameters regression using Graphpad Prism 5 software.
Background: ATP-based viability assays read luminescence as a measure of living cells.

Assay [2] has as its target FGFR4 (Homo sapiens (Human), UniProt P22455). Description: Inhibitory activity on kinase FGFR4 (Caliper mobility shift). Format: biochemical. As to conditions: read-out: FGFR4 IC50. Here is the method:
(§1) (1). Preparation of 1×Kinase buffer; (2) Preparation of the gradient concentrations of the compounds: the concentration of the compounds to be tested started from 10 μM, which was 3-fold diluted to prepare 10 dilutions, and then tested in duplicated wells. The compounds were 100-fold serially diluted into 10 dilutions with different final concentrations in 96-well plates, each of which was further diluted with 1×Kinase buffer to prepare an intermediate dilution having a concentration of 5 times the final concentration; (3) adding 5 μL of each of the prepared compound solution into the compound wells of 384-well plates, and each concentration set single well; adding 5 μL of 5% DMSO into negative control wells and positive control wells respectively; (4) preparing a kinase solution having a concentration of 2.5 times the final concentration with 1×kinase buffer; (5) adding 10 μL of kinase solution at a concentration of 2.5 times the final concentration into the compound wells and the positive control wells respectively; and adding 10 μL of 1×Kinase buffer into the negative control wells; (6) centrifuging at 1000 rpm for 30 seconds, and incubating at room temperature for 10 minutes after shaking and mixing evenly; (7) preparing a mixed solution of ATP and Kinase substrate 22 having a concentration of 2.5 times the final concentration with 1×Kinase Buffer; (8) adding 10 μL of the mixed solution of ATP and substrate at a concentration of 2.5 times the final concentration to initiate the reaction; (9) Centrifuging the 384-well plates at 1000 rpm for 30 seconds, and incubating at 28° C. for corresponding time respectively after shaking and mixing; (10) adding 30 μL of stop detection solution to stop the kinase reaction, centrifuging at 1000 rpm for 30 seconds, and shaking and mixing the mixture evenly; (11) reading the conversion rate by Caliper Ezreader II. The dose-effect curve was fitted by the log (inhibitor) vs. response-variable slope of GraphPad Prism 5 with the log value of concentration as the X axis and the percentage inhibition rate as the Y axis, then the IC50 value of each compound on the enzyme activity was obtained.

For assay [3], the target named is FGFR1 (Homo sapiens (Human), UniProt P11362). Put plainly: Inhibitory activity on kinase FGFR1 (Caliper mobility shift). The assay is classed as biochemical. As to conditions: read-out: FGFR1 IC50. Here is the method:
as §1

The structures appear in SMILES notation. Read-outs that look alike come from different tables or passages of the source.

FGFR1, sequence (P11362 22-822): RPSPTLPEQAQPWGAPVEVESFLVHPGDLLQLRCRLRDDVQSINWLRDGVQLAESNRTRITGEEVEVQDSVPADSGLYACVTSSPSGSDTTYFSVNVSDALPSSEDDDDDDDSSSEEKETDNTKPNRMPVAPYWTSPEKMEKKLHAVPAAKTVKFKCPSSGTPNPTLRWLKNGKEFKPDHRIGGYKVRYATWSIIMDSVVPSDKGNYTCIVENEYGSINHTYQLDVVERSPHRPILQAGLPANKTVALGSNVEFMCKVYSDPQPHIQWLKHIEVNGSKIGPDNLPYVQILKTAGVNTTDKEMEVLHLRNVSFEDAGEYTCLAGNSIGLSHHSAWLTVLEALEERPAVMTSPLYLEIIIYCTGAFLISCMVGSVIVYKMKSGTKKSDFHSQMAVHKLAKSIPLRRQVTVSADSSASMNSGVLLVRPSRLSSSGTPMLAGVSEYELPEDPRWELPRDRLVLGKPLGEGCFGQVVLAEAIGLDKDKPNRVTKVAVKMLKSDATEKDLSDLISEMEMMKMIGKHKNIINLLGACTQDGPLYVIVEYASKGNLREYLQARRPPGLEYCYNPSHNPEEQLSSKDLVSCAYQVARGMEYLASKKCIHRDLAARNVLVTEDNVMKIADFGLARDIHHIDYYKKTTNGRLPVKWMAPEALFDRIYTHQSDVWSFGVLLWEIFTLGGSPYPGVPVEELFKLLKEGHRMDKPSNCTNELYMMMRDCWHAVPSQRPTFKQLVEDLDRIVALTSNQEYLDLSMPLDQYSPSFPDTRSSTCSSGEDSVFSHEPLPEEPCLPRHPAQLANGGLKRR
FGFR4, sequence (P22455 22-802): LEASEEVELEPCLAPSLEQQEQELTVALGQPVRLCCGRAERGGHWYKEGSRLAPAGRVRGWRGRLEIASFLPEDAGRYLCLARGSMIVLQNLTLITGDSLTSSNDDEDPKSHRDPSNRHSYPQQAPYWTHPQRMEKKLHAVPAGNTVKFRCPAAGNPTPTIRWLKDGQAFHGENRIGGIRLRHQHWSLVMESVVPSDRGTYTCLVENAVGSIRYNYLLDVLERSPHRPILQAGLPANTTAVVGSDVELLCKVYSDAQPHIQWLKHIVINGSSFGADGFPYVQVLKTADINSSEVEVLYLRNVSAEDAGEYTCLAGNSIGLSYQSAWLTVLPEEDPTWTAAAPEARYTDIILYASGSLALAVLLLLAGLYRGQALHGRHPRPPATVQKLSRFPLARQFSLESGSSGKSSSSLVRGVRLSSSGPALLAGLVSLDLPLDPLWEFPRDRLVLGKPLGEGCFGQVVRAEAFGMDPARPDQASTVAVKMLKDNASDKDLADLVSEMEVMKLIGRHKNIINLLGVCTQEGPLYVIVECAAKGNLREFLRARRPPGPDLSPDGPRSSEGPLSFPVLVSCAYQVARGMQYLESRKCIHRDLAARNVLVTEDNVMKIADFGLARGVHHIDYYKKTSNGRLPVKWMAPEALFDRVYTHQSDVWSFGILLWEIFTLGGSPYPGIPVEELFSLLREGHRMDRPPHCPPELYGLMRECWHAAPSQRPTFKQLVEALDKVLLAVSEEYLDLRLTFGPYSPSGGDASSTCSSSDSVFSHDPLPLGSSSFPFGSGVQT

A word on the IC50: it is the midpoint of a concentration-inhibition curve. Regarding `C=CC(=O)N1CCN(CCCc2cn3c(n2)c(-c2c(F)c(OC)cc(OC)c2F)cc2cnc(NC)nc23)CC1` [Embodiment 1], the IC50 in assay [1] (Homo sapiens, Hep3B) was less than 20 nM; in assay [2], less than 20 nM; in assay [3] it was less than 20 nM.
For the compound `C=CC(=O)N1CCN(CCCc2cn3c(n2)c(-c2c(F)c(OC)cc(OC)c2F)cc2cnc(NC)cc23)CC1` [Embodiment 2], the IC50 was less than 20 nM in assay [1] (Homo sapiens, Hep3B); less than 20 nM in assay [2]; less than 20 nM in assay [3].
`C=CC(=O)N1CCN(CCCc2cn3c(n2)c(-c2c(Cl)c(OC)cc(OC)c2Cl)cc2cnc(NCC4CC4)nc23)CC1` [Embodiment 4]: the IC50 in assay [1] (Homo sapiens, Hep3B) was less than 20 nM; in assay [2], less than 20 nM; in assay [3], less than 20 nM.
Regarding `C=CC(=O)N1CCN(CCCc2cn3c(n2)c(-c2c(Cl)c(OC)cc(OC)c2Cl)cc2cnc(NC)cc23)CC1` [Embodiment 5], the IC50 in assay [1] (Homo sapiens, Hep3B) was less than 20 nM; in assay [2], less than 20 nM; in assay [3], less than 20 nM.
For the compound `C=CC(=O)N1CCN(CCCc2cn3c(n2)c(-c2c(Cl)c(OC)cc(OC)c2Cl)cc2cnc(NCCOC)nc23)CC1` [Embodiment 6, 1-(4-(3-(6-(2,6-dichloro-3,5-dimethoxyaniline)-2-((2-methoxyethyl)amino)imidazo[1′,2′:1,6]pyrido[2,3-d]pyrimidin-8-yl)propyl)piperazine-1-yl)prop-2-en-1-one], the IC50 in assay [1] (Homo sapiens, Hep3B) was less than 20 nM; in assay [2], less than 20 nM; in assay [3], less than 20 nM.
Take `C=CC(=O)N1CCN(CCCc2cn3c(n2)c(-c2c(Cl)c(OC)cc(OC)c2Cl)cc2cnc(NCCN4CCN(C)CC4)nc23)CC1` [Embodiment 7, 1-(4-(3-(6-(2,6-dichloro-3,5-dimethoxyaniline)-2-((2-(4-methylpiperazine-1-yl)ethylethyl)amino)imidazo[1′,2′:1,6]pyrido[2,3-d]pyrimidin-8-yl)propyl)piperazine-1-yl)prop-2-en-1-one]: the IC50 is 20 to 200 nM in assay [1] (Homo sapiens, Hep3B); less than 20 nM in assay [2]; less than 20 nM in assay [3].
`C=CC(=O)N1CCN(CCCc2cn3c(n2)c(-c2c(Cl)c(OC)cc(OC)c2Cl)cc2cnc(NCC)nc23)CC1` [Embodiment 8]: the IC50 in assay [1] (Homo sapiens, Hep3B) is less than 20 nM; in assay [2], less than 20 nM; in assay [3] it was less than 20 nM.
`C=CC(=O)N1CCN(CCCc2cn3c(n2)c(-c2c(Cl)c(OC)cc(OC)c2Cl)cc2cnc(NCCN(C)C)nc23)CC1` [Embodiment 9]: the IC50 is 20 to 200 nM in assay [1] (Homo sapiens, Hep3B); less than 20 nM in assay [2]; less than 20 nM in assay [3].
Consider `C=CC(=O)N1CCN(CCCc2cn3c(n2)c(-c2c(Cl)c(OC)cc(OC)c2Cl)cc2cnc(NCC(O)CO)nc23)CC1` (stereo not drawn) [Embodiment 10], for which the IC50 in assay [1] (Homo sapiens, Hep3B) was 20 to 200 nM; in assay [2], less than 20 nM; in assay [3], less than 20 nM.
Take `C=CC(=O)N1CCN(CCCc2cn3c(n2)c(-c2c(Cl)c(OC)cc(OC)c2Cl)cc2cnc(NCC4CCOC4)nc23)CC1` (stereo not drawn) [Embodiment 11]: the IC50 in assay [1] (Homo sapiens, Hep3B) was 20 to 200 nM; in assay [2], less than 20 nM; in assay [3], less than 20 nM.
For `C=CC(=O)N1CCN(CCCc2cn3c(n2)c(-c2c(Cl)c(OC)cc(OC)c2Cl)cc2cnc(NCC(C)(C)O)nc23)CC1` [Embodiment 12], the IC50 is 20 to 200 nM in assay [1] (Homo sapiens, Hep3B); less than 20 nM in assay [2]; less than 20 nM in assay [3].
Regarding `C=CC(=O)N1CCN(CCCc2cn3c(n2)c(-c2c(Cl)c(OC)cc(OC)c2Cl)cc2cnc(NCCC#N)nc23)CC1` [Embodiment 13], the IC50 was 20 to 200 nM in assay [1] (Homo sapiens, Hep3B); less than 20 nM in assay [2]; less than 20 nM in assay [3].
On to `C=CC(=O)N1CCN(CCCc2cn3c(n2)c(-c2c(Cl)c(OC)cc(OC)c2Cl)cc2cnc(NC)nc23)CC1(C)C` [Embodiment 14], for which the IC50 was 20 to 200 nM in assay [1] (Homo sapiens, Hep3B); 20 to 200 nM in assay [2]; less than 20 nM in assay [3].
Consider `C=CC(=O)N1CCN(CC(C)(C)Cc2cn3c(n2)c(-c2c(Cl)c(OC)cc(OC)c2Cl)cc2cnc(NC)nc23)CC1` [Embodiment 15, 1-(4-(3-(6-(2,6-dichloro-3,5-dimethoxyaniline)-2-(methylamine)imidazo[1′,2′:1,6]pyrido[2,3-d]pyrimidin-8-yl)-2,2-dimethylpropyl)piperazine-1-yl)prop-2-en-1-one], for which the IC50 in assay [1] (Homo sapiens, Hep3B) was 20 to 200 nM; in assay [2] it was 20 to 200 nM; in assay [3], less than 20 nM.
With `C=CC(=O)N1CCN(Cc2cn3c(n2)c(-c2c(Cl)c(OC)cc(OC)c2Cl)cc2cnc(NC)nc23)CC1` [Embodiment 16, 1-(4-((6-(2,6-dichloro-3,5-phenyldimethoxyphenyl)-2-(methylamine)imidazo[1′,2′:1,6]pyrido[2,3-d]pyrimidin-8-yl)methyl)piperazine-1-yl)acrylamide], the IC50 in assay [1] (Homo sapiens, Hep3B) is 20 to 200 nM; in assay [2], more than 200 nM; in assay [3] it was less than 20 nM.
As for `C=CC(=O)N1CCN(c2cccc(-c3cn4c(n3)c(-c3c(Cl)c(OC)cc(OC)c3Cl)cc3cnc(NC)nc34)c2)CC1` [Embodiment 18, 1-(4-(3-(6-(2,6-dichloro-3,5-dimethoxyphenyl)-2-(methylamine)imidazo[1′,2′:1,6]pyrido[2,3-d]pyrimidin-8-yl)phenyl)piperazine-1-yl)acrylamide], the IC50 in assay [1] was 20 to 200 nM; in assay [2] it was more than 200 nM; in assay [3], less than 20 nM.
With `C=CC(=O)NCc1cccc(-c2cn3c(n2)c(-c2c(Cl)c(OC)cc(OC)c2Cl)cc2cnc(NC)nc23)c1` [Embodiment 19, N-(3-(6-(2,6-dichloro-3,5-dimethoxyphenyl)-2-(methylamino)imidazo[1′,2′:1,6]pyrido[2,3-d]pyrimidin-8-yl)benzyl)acrylamide], the IC50 is 20 to 200 nM in assay [1] (Homo sapiens, Hep3B); more than 200 nM in assay [2]; less than 20 nM in assay [3].

The values above are taken from patent US11267815B2, “Class of amino-substituted nitrogen-containing fused ring compounds, preparation method therefor, and use thereof” (SHANGHAI RINGENE BIOPHARMA CO., LTD., priority 2017, dated 2022).
